Assay results published in patent publication US20050271676A1, “Inducing cellular immune responses to human immunodeficiency virus-1 using peptide and nucleic acid compositions” (Epimmune Inc., priority 1993, published 2005).
No end group written: not given here.

Legend:
[1] = target: HLA-B*3501 (Homo sapiens, UniProt P01889, A329T/A93T/A95T/C349S/D201E/D98Y/E176V/E187L/E204Q/E69T/I218V/K202T/L119I/Q94N/R155S/R180L/S121R/S35A/S48A/T118I/V127L/V306I/V36M/Y140S/Y91F); test: purified HLA class I binding assay, B*3501
[2] = target: HLA-B*5401 (Homo sapiens, UniProt P01889, A329T/C349S/D138N/D201E/E176V/E187T/E204Q/E69G/I76V/K202T/L119W/R155S/R180L/S121T/S35A/S48A/V127L/V306I/V36M/Y140L); test: biochemical
[3] = target: T1, HLA-B*0702 (Homo sapiens, UniProt P01889); test: purified HLA class I binding assay, B*0702
T1 construct: endogenous in cells; host or cells: GM3107

[4] = target: HLA-B*5301 (Homo sapiens, UniProt P01889, A329T/A93T/A95T/C349S/D201E/D98Y/E176V/E187L/E204Q/E69T/G107R/I218V/K202T/L105A/L119I/N104I/Q94N/R106L/R155S/R180L/S101N/S121R/S35A/S48A/T118I/V127L/V306I/V36M/Y140S/Y91F); test: purified HLA class I binding assay, B*5301
[5] = target: HLA-B51 (B*5101) (Homo sapiens, UniProt P01889, A329T/A93T/A95T/C349S/D138N/D201E/D98Y/E187L/E204Q/E69T/G107R/I218V/K202T/L105A/L119W/N104I/Q94N/R106L/R155S/R180L/S101N/S121T/S35A/S48A/V306I/V36M/Y195H/Y91F); test: purified HLA class I binding assay, B51 (B*5101)
[6] = system: PBMC from patients infected with HIV; test: recall CTL responses, PBMC from HIV-infected patients, 51Cr release; assay type: cell-based, human
[7] = system: HLA-A11/K^b transgenic mice; test: CTL induction in HLA-A11/K^b transgenic mice after peptide immunization; assay type: in vivo; conditions: protocol as for HLA-A2 transgenic mice
[8] = target: HLA-A*6802 (Homo sapiens, UniProt P04439, A269V/D140Y/D185E/E176V/E277Q/E87N/F33Y/G231S/I121R/I166T/I218V/L180W/L300P/L318F/N151K/P208A/P217A/Q86R/R138H/R169H/S129P/T345S/V36M); test: purified HLA class I binding assay, A*6802
[9] = system: A*0201/K^b transgenic mice; test: CTL induction in A*0201/K^b transgenic mice after peptide immunization; assay type: in vivo
[10] = target: HLA-A*0206 (Homo sapiens, UniProt P04439, D140Y/D185E/D98H/E176V/E277Q/F33Y/G131W/G231S/I119V/I121R/I166T/I218V/L300P/L318F/N151K/N90K/P208A/P217A/Q86G/Q94H/R138H/R169H/T345S); test: purified HLA class I binding assay, A*0206
[11] = target: HLA-A*0203 (Homo sapiens, UniProt P04439, A173T/D140Y/D185E/D98H/E277Q/G131W/G231S/I119V/I121R/I166T/I218V/L180W/L300P/L318F/N151K/N90K/P208A/P217A/Q86G/Q94H/R138H/R169H/T345S); test: purified HLA class I binding assay, A*0203
[12] = target: T2, HLA-DRB1*1101 (DR5w11) (Homo sapiens, UniProt P01903+P01911, A100R/A169T/A87E/I96F/K41T/L162R/M171V/P40S/Q125H/Q178H/Q39Y/Q99D/R42S/S66Y/T262R/V115G/W38E); test: biochemical; assay type: binding
T2 construct: endogenous in cells

[13] = target: T3, HLA-DRB1*1201 (DR5w12) (Homo sapiens, UniProt P01903+P01911, A100R/A169T/D57E/D86V/F55L/H45Y/K41T/L162R/M171V/P40S/Q125H/Q178H/Q39Y/Q99D/R42G/S66L/T262R/V114A/V67L/W38E/Y59H/Y61H/Y89S); test: purified HLA class II binding assay, DRB1*1201 (DR5w12)
T3 construct: endogenous in cells

[14] = target: T4, HLA-DRB1*1501 (DR2w2β1) (Homo sapiens, UniProt P01903+P01911); test: purified HLA class II binding assay, DRB1*1501 (DR2w2β1)
T4 construct: expressed in transfected cells

[15] = target: T5, HLA-DRB1*0701 (DR7) (Homo sapiens, UniProt P01903+P01911, A100R/A102G/A103Q/D57E/D86V/E43K/F76Y/K127E/L162R/M171V/P40G/Q125H/Q99D/R33Q/R42Y/R54Q/S133A/S66F/T210M/V115G/Y107V/Y59L/Y89S); test: biochemical; assay type: binding
T5 construct: endogenous in cells; host or cells: Pitout

[16] = target: HLA-DRB1*1302 (DR6w19) (Homo sapiens, UniProt P01903+P01911, A100E/A169T/K41T/L162R/M171V/P40S/Q125H/Q178H/Q39Y/Q99D/R42S/S66N/T262R/V115G/W38E/Y61H); test: purified HLA class II binding assay, DRB1*1302 (DR6w19)
[17] = target: T6, HLA-DRB1*0901 (DR9) (Homo sapiens, UniProt P01903+P01911, A100R/A103E/D57H/D86V/F55Y/F60I/F76Y/I96F/K127E/L162R/M171V/P40D/Q125H/Q99R/R33Q/R42F/S133A/S66N/T210M/V115G/W38K/Y107V/Y59G/Y89S); test: biochemical; assay type: binding
T6 construct: endogenous in cells

[18] = target: HLA-DRB1*0405 (DR4w15) (Homo sapiens, UniProt P01903+P01911, A100R/A169T/D86S/F76Y/I96L/K127E/L162R/M171V/N62H/P40V/Q125Y/R42H/S133A/S149N/S66Y/V115G/V209L/W38E); test: purified HLA class II binding assay, DRB1*0405 (DR4w15)
[19] = target: T7, HLA-DRB1*0301 (DR3) (Homo sapiens, UniProt P01903+P01911, A100K/A102G/A103R/A169T/F55Y/I96L/K41T/L162R/M171V/P40S/Q125H/Q178H/Q39Y/R42S/S66N/T106N/T262R/W38E/Y61H); test: purified HLA class II binding assay, DRB1*0301 (DR3), pH 4.5
T7 construct: endogenous in cells; host or cells: MAT

[20] = target: T8, HLA-DRB1*0802 (DR8w2) (Homo sapiens, UniProt P01903+P01911, A100R/A103L/A169T/F76Y/H45Y/I96F/K41T/L162R/M171V/P40S/Q125H/Q178H/Q39Y/Q99D/R218S/R42G/S66Y/V115G/W38E); test: biochemical; assay type: binding
T8 construct: endogenous in cells

[21] = target: T9, HLA-DRB1*0401 (DR4w4) (Homo sapiens, UniProt P01903+P01911, A100K/A169T/F76Y/I96L/K127E/L162R/M171V/N62H/P40V/Q125Y/R42H/S133A/S149N/S66Y/V115G/V209L/W38E); test: purified HLA class II binding assay, DRB1*0401 (DR4w4)
T9 construct: endogenous in cells; host or cells: Preiss

[22] = target: T10, HLA-DRB5*0101 (DR2w2β2) (Homo sapiens, UniProt P01903+Q30154); test: biochemical; assay type: binding
T10 construct: expressed in transfected cells

[23] = HIV DR super motif peptides, unit not given

T7 sequence (P01903 26-254 partner, other chains not shown): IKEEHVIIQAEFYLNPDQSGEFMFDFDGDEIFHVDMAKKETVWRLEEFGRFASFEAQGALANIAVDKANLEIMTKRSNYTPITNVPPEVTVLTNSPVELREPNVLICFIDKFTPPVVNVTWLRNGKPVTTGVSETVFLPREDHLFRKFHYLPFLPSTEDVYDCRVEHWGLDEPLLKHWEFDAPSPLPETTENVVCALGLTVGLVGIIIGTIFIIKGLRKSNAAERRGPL
T9 sequence (P01903 26-254 partner, other chains not shown): as above
T2 sequence (P01903 26-254, other chains not shown): as the sequence (P01903 26-254 partner, other chains not shown) above

## FPISPIETV [Peptide 1261.01]
[1]
  IC50: 1040 nM
[2]
  IC50: 9.1 nM
[3]
  IC50: 3440 nM

## VPLQLPPL [29.0028]
[1]
  IC50: 6000 nM
[4]
  IC50: 46500 nM
[2]
  IC50: 270 nM
[5]
  IC50: 0.8 nM

## CC(C)[C@H](N)C(=O)N[C@H](C(=O)N[C@H](C(=O)N[C@@H](Cc1ccc(O)cc1)C(=O)N[C@@H](Cc1ccc(O)cc1)C(=O)NCC(=O)N[C@H](C(=O)N1CCC[C@H]1C(=O)N[C@H](C(=O)N[C@@H](Cc1c[nH]c2ccccc12)C(=O)N[C@@H](CCCCN)C(=O)O)C(C)C)C(C)C)C(C)C)[C@@H](C)O [Peptide 1069.47]
[6]; shown by collaborators
  immunogenicity in HIV-infected patients: immunogenic in HIV-infected patients
[7]
  induction of CTL in HLA-A11 transgenic mice: induced CTL responses in transgenic mice

## CC[C@H](C)[C@H](NC(=O)CNC(=O)[C@H](Cc1c[nH]c2ccccc12)NC(=O)[C@@H](NC(=O)[C@@H](NC(=O)[C@H](CC(C)C)NC(=O)[C@H](CCC(N)=O)NC(=O)[C@H](CC(C)C)NC(=O)[C@@H](N)CC(C)C)[C@@H](C)O)C(C)C)C(=O)O [Peptide 1261.02]
[6]; A2-supertype peptides, positive/tested HIV-infected patients
  Immunogenicity patients: 2/8
[6]; A2 Supermotif peptides, positive/tested patients
  Immunogenicity patients: 2/8
[8]
  IC50: 645 nM
[9]; A2 Supermotif peptides, positive/tested transgenic
  Immunogenicity transgenic: 1/6
[9]; A*0201/K^b transgenic mice, positive/tested
  Immunogenicity transgenic: 1/6
[10]
  IC50: 24.7 nM
[11]
  IC50: 43.5 nM

## CPKVSFEPI [1296.02]
[1]
  IC50: 5140 nM
[4]
  IC50: 2450 nM
[2]
  IC50: 100 nM
[3]
  IC50: 100 nM

## QQHLLQLTVWGTKQL
[12]
  DR5w11 binding: 0.0036
[13]; [23]
  DR5w12 binding: 0.4900
[14]; [23]
  DR2 wβ1 binding: 0.7500
[15]
  DR7 binding: 0.3900
[16]; [23]
  DR6w19 binding: 0.0180
[17]
  DR9 binding: 0.5100
[18]; [23]
  DR4w15 binding: 0.2700
[19]; [23]
  DR3 binding: −0.0043
[20]
  DR8w2 binding: 0.0210
[21]; [23]
  DR4w4 binding: 0.0330
[22]
  DR2w2β2 binding: 0.0580

## CC(C)C[C@H](NC(=O)[C@@H]1CCCN1C(=O)[C@@H](NC(=O)[C@H](CCC(N)=O)NC(=O)[C@@H]1CCCN1C(=O)[C@H](CCCNC(=N)N)NC(=O)[C@@H](NC(=O)[C@@H]1CCCN1C(=O)[C@@H](N)Cc1ccccc1)C(C)C)C(C)C)C(=O)O [1146.01]
[1]
  IC50: 43 nM
[4]
  IC50: 482 nM
[3]
  IC50: 15.7 nM
[5]
  IC50: 11.6 nM

## IPYNPQSQGVV [1296.03]
[1]
  IC50: 72000 nM
[4]
  IC50: 46500 nM
[2]
  IC50: 66.7 nM
[5]
  IC50: 120 nM

## CC[C@H](C)[C@H](NC(=O)CNC(=O)[C@H](CCCCN)NC(=O)[C@H](Cc1c[nH]cn1)NC(=O)[C@H](C)NC(=O)[C@@H]1CCCN1C(=O)[C@@H](NC(=O)[C@H](Cc1c[nH]c2ccccc12)NC(=O)[C@H](C)NC(=O)[C@H](CC(C)C)NC(=O)[C@H](Cc1ccc(O)cc1)NC(=O)[C@@H](NC(=O)[C@H](CCCCN)NC(=O)[C@@H](N)CCC(=O)O)C(C)C)C(C)C)C(=O)NCC(=O)O [Peptide 27.0361]
[12]
  IC50: 37 nM
[13]
  IC50: 6480 nM
[14]
  IC50: 21 nM
[15]
  IC50: 18 nM
[16]
  IC50: 3500 nM
[17]
  IC50: 144 nM
[18]
  IC50: 27 nM
[19]
  IC50: 3230 nM
[20]
  IC50: 31 nM
[21]
  IC50: 9.3 nM
[22]
  IC50: 4.9 nM

## CC(C)C[C@H](NC(=O)[C@H](CO)NC(=O)[C@H](CCCNC(=N)N)NC(=O)[C@H](CC(C)C)NC(=O)[C@H](CO)NC(=O)[C@H](C)NC(=O)[C@H](CC(C)C)NC(=O)[C@@H]1CCCN1C(=O)[C@@H](N)Cc1ccc(O)cc1)C(=O)N[C@@H](Cc1ccccc1)C(=O)O [15.0268]
[2]
  IC50: 714 nM
[5]
  IC50: 39.3 nM

## HPVHAGPIA [1292.13]
[1]
  IC50: 11.6 nM
[4]
  IC50: 4430 nM
[2]
  IC50: 4.3 nM
[3]
  IC50: 50 nM
